# No end group written: not given here.
# How the values were obtained:
# [1] = test system: annexin 1 (Anxa1) fragment; details: cited from earlier work
# normal lung = details: through pre-mRNA splicing factors; cited from earlier work
# [2] = test system: carbohydrate-dependent cancer cell colonization to the lung; details: synthetic peptide injected intravenously into mice; cited from earlier work
# [3] = test system: Anxa1-expressing mouse endothelial F-2 cells; test: binding to the surface of F-2 cells cultured in vitro; assay type: cell-based
# Method: (§1) A. Binding of IF7C(RR)-conjugated FITC-polylysine on the surface of mouse endothelial F-2 cells cultured in vitro. B. Transport of […] FITC-poly-L-lysine through apical surface to basal space of F-2 cells monolayer. F-2 cells cultured on a filter of trans well insert was added with IF7C(RR)-conjugated FITC-poly-L-lysine to allow the reagent being bound to apical cell surface of F-2 cells. After washing the monolayer with medium, insert was placed in wells containing medium at 37° C. or at 4° C. Fluorescence moved to the lower chamber of insert was measured. C. Targeting and penetration of intravenously injected IF7C(RR)-conjugated FITC-poly-L-lysine in the B16 tumor in vivo in the mouse. Tissue section was immunostained for endothelial cell marker CD31.
# (§2) Thus IFLLWQR-C-RR (SEQ ID NO: 17) or IF7C(RR) was synthesized. […] The cytoplasmic and nuclear FITC signals are consistent with the localization of Anxa1 in the cytoplasm and nucleus (Gerke, 2005 #5299). […] (FIG. 12B). […] To determine if the binding and transport of IF7C(RR) occur in vivo in the tumor vasculature, IF7C(RR)-conjugated FITC-poly-L-lysine was injected intravenously into a B16 tumor-bearing mouse. […] Small molecules such as SN-38 conjugated with IF7C(RR) can penetrate to the tumor deeper and faster than the large molecule such as poly-L-lysine.
# F-2 cells monolayer = test: transport through F-2 cell monolayer in trans well chamber; assay type: cell-based, mouse
# Method: as §1, §2
# B16 tumor vasculature = test: targeting and penetration in B16 tumor vasculature after intravenous injection; assay type: in vivo; details: B16 tumor-bearing mouse
# Method: as §1, §2
# [4] = test system: Human prostate cancer PC3 tumors; test: orthotopic PC3 prostate cancer model in SCID mice; assay type: in vivo; details: 0.13 μmoles iv
# Method: (§3) FIGS. 6A and 6B show the effect of IF7-GA on melanoma, lung carcinoma, prostate cancer, and breast cancer mouse models. A, Effect of IF7-GA on tumor size. […] Mice were euthanised on day 15 to measure tumor weight. […] Mice were euthanised on day 13 and tumors weighed. (c) Human prostate cancer PC3 tumors were grown orthotopically in the prostate of SCID mice. On day 7, each mouse was injected intravenously with the compounds as in A-a, and injections administered every 4 days, for a total of four injections, until day 22. Mice were euthanised on day 28 and tumors weighed. (d) Human breast cancer MDA-MB-231 tumors were grown orthotopically in fat pads of SCID mice. On day 7, each mouse was injected intravenously with the compounds as in A-a, and injections performed every 4 days, for a total of four injections, until day 22. […] B, Histochemistry of tumors from the mice intravenously injected with the compounds described in A. Apoptotic tumor cells along blood vessels in transplanted tumors are detected by TUNEL assay. […]
# (§4) Mouse melanoma B16F1 cells (2×10^5 cells/100 μl serum-free DMEM) were injected subcutaneously into the dorsal flank of C57BL/6 female mice (8-10 weeks old). […] On day 15, mice were sacrificed and tumor weights determined. […] On day 13, mice were sacrificed and tumor weights determined. […] On day 28, mice were sacrificed and prostate tumor weights determined. […]
# Anxa1-His6 protein = target: T1, Anxa1-His6 protein (Homo sapiens, UniProt P04083); test: inhibition of binding of FITC-labeled polyacrylamide-LeA oligosaccharide to Anxa1-His6
# T1 construct: Full-length cDNA encoding Anxa1 was obtained from Invitrogen (Carlsbad, Calif.) and subcloned into pET29a vector; His6 (C); made in house; host or cells: bacteria (pET29a vector, Novagen)
# T1 sequence (P04083 1-346): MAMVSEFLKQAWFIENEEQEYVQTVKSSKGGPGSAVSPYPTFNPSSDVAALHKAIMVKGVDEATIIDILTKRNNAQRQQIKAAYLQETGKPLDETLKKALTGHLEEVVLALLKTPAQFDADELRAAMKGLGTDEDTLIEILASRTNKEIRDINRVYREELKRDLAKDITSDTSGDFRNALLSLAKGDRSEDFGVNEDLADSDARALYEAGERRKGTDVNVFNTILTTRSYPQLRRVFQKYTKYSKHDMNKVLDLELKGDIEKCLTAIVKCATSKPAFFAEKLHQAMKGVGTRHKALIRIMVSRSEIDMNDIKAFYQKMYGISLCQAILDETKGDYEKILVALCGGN
# From the text: (§5) FIGS. 1A-1H show the essential role of annexin 1 (Anxa1) in tumor growth and identification of a peptide sequence with tumor vasculature targeting activity in vivo. A and B. Growth of B16 tumors subcutaneously injected into Anxa1(+/−) and Anxa1(−/−) mutant mice. C. Histology of B16 tumors produced in Anxa1(+/−) and Anxa1(−/−) mice. Each scale bar represents 2.00 mm. D. Immunohistochemistry of B16 tumors for CD31 showing endothelial cells and vasculature. Each scale bar represents 200 μm. E. In vivo phage targeting in B16 tumor-bearing mice. Numbers of transformed colonies recovered from the tumor or lung were determined. […] F. In vivo tumor and organ targeting activity of IFLLWQR (SEQ ID NO:2) displaying phage. Phage was injected into B16 tumor bearing mice pre-injected with anti-Anxa1 antibody or with control rabbit IgG. G. In vitro plate assay for binding of IF7-A488 (upper line) and control RQ7-A488C (lower line) to recombinant […] protein produced by bacteria. H. Effect of IF7 (upper line) and control RQ7 (lower line) on binding of FITC-labeled polyacrylamide-LeA oligosaccharide to Anxa1-His6 protein.
# Full-length cDNA encoding Anxa1 was obtained from Invitrogen (Carlsbad, Calif.) and subcloned into pET29a vector (Novagen) to produce an […] fusion protein. […] After washing the plate, fluorescence was measured by a Molecular Devices Analyst HT plate reader. […]
# Anxa1-His protein [5] = target: T2, Anxa1-His protein (Homo sapiens, UniProt P04083); test: isothermal titration calorimetry (ITC) with Anxa1-His protein; assay type: binding; details: qualitative
# T2 construct: Full-length cDNA encoding Anxa1 was obtained from Invitrogen (Carlsbad, Calif.) and subcloned into pET29a vector; His6 (C); made in house; host or cells: bacteria (pET29a vector, Novagen)
# T2 sequence (P04083 1-346): T1 sequence (P04083 1-346)
# Method: ITC was performed on a VP-ITC calorimeter from Microcal (Northampton, Mass.). In this analysis IF7K3C peptide or […] (SEQ ID NO:12), in which IF7 was modified by inserted with three lysine residues between IF7 and C to increase solubility in water. Eight μl aliquots of solution containing 1.0 or 1.5 mM were injected into the cell containing 100 or 150 μM Anxa1-His protein. In each experiment 37 injections were made. The experiments were performed at 23° C. in buffer containing 20 mM Tris pH 7.9, 250 mM NaCl, 1 mM CaCl2 and 10% dimethylsulfoxide. Experimental data were analyzed using Microcal Origin software provided by the ITC manufacturer (Microcal, Northampton, Mass.).
# [6] = test system: Mouse Lewis lung carcinoma (LLC) tumors; test: subcutaneous Lewis lung carcinoma tumor model; assay type: in vivo; details: 0.13 μmoles iv
# Method: as §3, §4
# B16 tumor = test: in vivo phage targeting in B16 tumor-bearing mice; parameters: species or system mouse
# From the text: as §5
# Mouse melanoma B16F1 cells (2×10^5 cells/100 μl PBS) were injected subcutaneously into the dorsal flank of C57BL/6 female mice (8-10 weeks old). […] Colonies appearing on an agar plate after culturing at 37° C. for 20 hours were counted.
# [7] = test system: Mouse melanoma B16F1 tumors; assay type: in vivo; details: B16 melanoma, 0.13 μmoles iv
# Method: (a) Mouse melanoma B16F1 tumors were grown subcutaneously in C57BL6 mice. On day 10, each mouse was injected intravenously with either 100 μl of 5% glucose or that containing 0.13 μmoles of each IF7, GA, or IF7-GA. Injections were administered every other day, for a total of three injections, until day 14. […] B, Histochemistry of tumors from the mice intravenously injected with the compounds described in A. Apoptotic tumor cells along blood vessels in transplanted tumors are detected by TUNEL assay. B16 melanoma (a), LLC lung carcinoma (b), PC3 prostate tumor (c) and MDA-MB-231 breast tumor (d) from mice treated with each compound.
# Injections were administered every other day, for a total of 7 injections, until day 26, as shown by arrows.
# Anxa1-His protein [8] = target: T2, Anxa1-His protein; test: surface plasmon resonance on Anxa1 coated chip; assay type: binding; details: qualitative
# Method: IASys (Affinity Sensors, Cambridge, UK) was used. Anxa1-His protein was immobilized on the sensor chip by cross-linking to the aminosilane surface using bis[sulfosuccinimidyl] substrate (Pierce). Binding of IF7C dissolved in TBSC was recorded for 2 min, and dissociation of IF7C was initiated by adding TBSC to the sensor chip and the arc second was recorded for 5 min.
# [9] = test system: Human breast cancer MDA-MB-231 tumors; test: orthotopic MDA-MB-231 breast cancer model in SCID mice; assay type: in vivo; details: MDA-MB-231 breast tumor, 0.13 μmoles iv
# Method: as §3, §4
substance,measurement,setting,value
"IELLQAR [I-peptide, selectin ligand mimicry peptide]",binding to annexin 1 fragment,[1],bound to an annexin 1 (Anxa1) fragment
same,targeting to normal lung,normal lung,also targets to normal lung
same,cancer cell colonization to the lung,[2],inhibited carbohydrate-dependent cancer cell colonization to the lung
"IF7C(RR)-conjugated FITC-poly-L-lysine: IF7C(RR) conjugated to FITC-poly-L-lysine (IFLLWQRCRR; also: conjugated to FITC-poly-L-lysine, site not given here)",binding to the surface of F-2 cells,[3],bound to the surface of Anxa1-expressing mouse endothelial F-2 cells
same,transport of fluorescence to the lower chamber at 4° C.,F-2 cells monolayer; 4° C.,not at 4 °C
same,transport of fluorescence to the lower chamber at 37° C.,F-2 cells monolayer; 37° C.,fluorescence migrated to the lower chamber
same,localization of fluorescence in tumor tissue sections,B16 tumor vasculature,green fluorescence signals around the abluminal area of the vasculatures
IFLLWQR (annexin-1 binding compound) [IF7],apoptosis of perivascular tumor cells (TUNEL),[4],rarely show apoptosis
same,inhibition of fucosylated carbohydrate (LeA) binding to Anxa1,Anxa1-His6 protein,inhibited by IF7
same,binding to Anxa1 by isothermal titration assay,Anxa1-His protein [5],confirmed
same,apoptosis of perivascular tumor cells (TUNEL),[6],rarely show apoptosis
same,targeting to the lung in tumor-bearing mice,"B16 tumor; mouse, in vivo",could not be detected
same,organ targeting of intravenously injected phage clone,"B16 tumor; tumor versus lung, B16 tumor-bearing mice",targets tumor but not lung tissue
same,"apoptosis of perivascular tumor cells (TUNEL, histochemistry)",[7],rarely show apoptosis
same,binding to Anxa1 by surface plasmon resonance,Anxa1-His protein [8],confirmed
same,apoptosis of perivascular tumor cells (TUNEL),[9],rarely show apoptosis
